The target of the test is interaction between p53 and MDM2 proteins (recombinant GST-tagged MDM2, p53 peptide) (Homo sapiens, UniProt Q00987). Briefly: HTRF assay of inhibition of the p53-MDM2 interaction (GST-MDM2 binding to biotinylated p53 peptide). To be noted: 0.02% BSA. How it is done: The ability of the compounds to inhibit the interaction between p53 and MDM2 proteins was measured by an HTRF (homogeneous time-resolved fluorescence) assay in which recombinant GST-tagged MDM2 binds to a peptide that resembles the MDM2-interacting region of p53 (Lane et al.). Binding of GST-MDM2 protein and p53-peptide (biotinylated on its N-terminal end) is registered by the FRET (fluorescence resonance energy transfer) between Europium (Eu)-labeled anti-GST antibody and streptavidin-conjugated Allophycocyanin (APC).
Sequence of interaction between p53 and MDM2 proteins (recombinant GST-tagged MDM2, p53 peptide) (Q00987 whole entry): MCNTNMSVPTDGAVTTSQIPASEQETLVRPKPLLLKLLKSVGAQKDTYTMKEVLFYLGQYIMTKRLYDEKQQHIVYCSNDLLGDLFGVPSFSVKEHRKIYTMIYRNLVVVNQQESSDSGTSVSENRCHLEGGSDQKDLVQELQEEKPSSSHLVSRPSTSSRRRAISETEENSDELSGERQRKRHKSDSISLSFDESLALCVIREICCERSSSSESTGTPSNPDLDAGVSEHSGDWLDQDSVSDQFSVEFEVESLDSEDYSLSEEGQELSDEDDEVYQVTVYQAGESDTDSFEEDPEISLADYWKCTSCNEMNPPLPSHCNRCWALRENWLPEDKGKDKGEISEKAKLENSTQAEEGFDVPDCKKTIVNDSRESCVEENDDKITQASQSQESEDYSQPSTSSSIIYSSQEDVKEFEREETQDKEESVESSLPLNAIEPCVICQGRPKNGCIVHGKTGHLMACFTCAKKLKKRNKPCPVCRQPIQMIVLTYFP
Test is performed in black flat-bottom 384-well plates (Costar) in a total volume of 40 uL containing: 90 nM biotinylate peptide, 160 ng/ml GST-MDM2, 20 nM streptavidin-APC (PerkinElmerWallac), 2 nM Eu-labeled anti-GST-antibody (PerkinElmerWallac), 0.2% bovine serum albumin (BSA), 1 mM dithiothreitol (DTT) and 20 mM Tris-borate saline (TBS) buffer as follows: Add 10 uL of GST-MDM2 (640 ng/ml working solution) in reaction buffer to each well. Add 10 uL diluted compounds (1:5 dilution in reaction buffer) to each well, mix by shaking. Add 20 uL biotinylated p53 peptide (180 nM working solution) in reaction buffer to each well and mix on shaker. Incubate at 37° C. for 1 h. Add 20 uL streptavidin-APC and Eu-anti-GST antibody mixture (6 nM Eu-anti-GST and 60 nM streptavidin-APC working solution) in TBS buffer with 0.2% BSA, shake at room temperature for 30 minutes and read using a TRF-capable plate reader at 665 and 615 nm (Victor 5, Perkin ElmerWallac). If not specified, the reagents were purchased from Sigma Chemical Co.
A general note: TR-FRET usually uses a lanthanide donor and a delayed reading to cut background.
As a reminder, the IC50 is the midpoint of a concentration-inhibition curve. For `O=C1C[C@H](C2CCCC2)[C@@]2(C(=O)Nc3cc(Cl)ccc32)[C@H](c2cccc(Cl)c2)N1` (racemic) [Example 5d, (2′S,3S,4′R)-6-chloro-2′-(3-chlorophenyl)-4′-cyclopentylspiro[3H-indole-3,3′-piperidine]-2,6′(1H)-dione], the IC50 was 2430 nM.

In the case of `O=C1C[C@@H](c2cccc(Cl)c2)[C@]2(C(=O)Nc3cc(Cl)ccc32)[C@@H](c2ccccc2)N1` (racemic) [Example 14b, (2′R,3R,4′S)-6-chloro-4′-(3-chlorophenyl)-2′-phenylspiro[3H-indole-3,3′-piperidine]-2,6′(1H)-dione], the IC50 came to 440 nM. For the compound `C[C@@H]1C(=O)N[C@H](c2cccc(Cl)c2)[C@@]2(C(=O)Nc3cc(Cl)ccc32)[C@@H]1c1cccc(Cl)c1` (racemic) [Example 20, (2′R,3R,4′S,5′S)-6-chloro-2′,4′-bis(3-chlorophenyl)-5′-methylspiro[3H-indole-3,3′-piperidine]-2,6′(1H)-dione], the 50% inhibitory concentration (IC50) turned out to be 1810 nM.

As for `CCN1C(=O)C[C@@H](c2cccc(Cl)c2)[C@]2(C(=O)Nc3cc(Cl)ccc32)[C@H]1c1ccccc1C` (racemic) [Example 26b, (2′R,3R,4′S)-6-chloro-4′-(3-chlorophenyl)-1′-ethyl-2′-(2-methylphenyl)spiro[3H-indole-3,3′-piperidine]-2,6′(1H)-dione], the 50% inhibitory concentration (IC50) is 490 nM. With `Cc1ccccc1[C@H]1N(CC(=O)O)C(=O)C[C@@H](c2cccc(Cl)c2)[C@]12C(=O)Nc1cc(Cl)ccc12` (racemic) [Example 31, (2′R,3R,4′S)-6-chloro-4′-(3-chlorophenyl)-1′-[(hydroxycarbonyl)-methyl]-2′-(2-methylphenyl)spiro[3H-indole-3,3′-piperidine]-2,6′(1H)-dione], the IC50 was 372 nM.

The record behind these values is patent US7495007B2, “Spiroindolinone derivatives” (Hoffmann-La Roche Inc., priority 2006, dated 2009).
